Drawing on PubChem BioAssay AID2060513 (Molecular Pharmacology Branch, DTP, NCI, 2025), this text covers IC50 and viability, T/C for 5 compounds.

Usually IC50 stands for the concentration at which inhibition is half-maximal. The viability, T/C is the result in the treated group divided by that in the control group, in per cent.

Several values for one entry are separate records, joined by “and”; a condition that tells them apart may be missing. Identical values can stand only once.

The test system of the assay is 299254-011-R-J1-PDC complex spheroids viability. The experiment in a line: Anticancer human tumor 299254-011-R-J1-PDC patient-derived melanoma cell line growth inhibition [GQUAD]. As to conditions: for viability, T/C: stronger effect = lower value. The text has this: DNA G-quadruplex Stabilizer Agents in Combinations in Complex Spheroids
A high-throughput screen of multi-cell type tumor spheroids was designed to identify active combinations of DNA G-quadruplex stabilizer agents and targeted small molecules. Complex spheroids include a stromal component modeled by human endothelial cells (HUVEC) and fibroblasts modeled by human mesenchymal stem cells (MSCs). The concentration ranges selected for each drug and investigational agent were based upon clinically achievable concentrations if the clinical Cmax of the agent was known.
Compounds. The drugs and investigational agents: pidnarulex (CX-5461; NSC782164), APTO-253 (NSC789042), BRACO-19 (NSC847499), peposertib (NSC802822), ceralasertib (NSC780249), elimusertib (NSC800525), camonsertib (NSC841442), AZD-1390 (NSC803789), olaparib (NSC753686), talazoparib (NSC767125), ART-558 (NSC835418), sotorasib (NSC818433), MRTX-1133 (NSC836407), SN-38 (NSC673596), topotecan (NSC609699), etoposide (NSC141540), doxorubicin (NSC123127), gemcitabine (NSC613327), 5-fluorouracil (NSC19893), paclitaxel (NSC125973), vemurafenib (NSC761431), panobinostat (NSC761190), R-306465 (JNJ-16241199; NSC773264), adavosertib (NSC754352), TP-3654 (NSC805149), carboplatin (NSC241240), KSQ-4279 (NSC840948), and staurosporine (NSC755774) were obtained from the National Cancer Institute (NCI) Developmental Therapeutics Program Chemical Repository (34). The FDA-approved anticancer drug set is available from the NCI Developmental Therapeutics Program. […] The stock solutions were prepared in dimethyl sulfoxide (DMSO, Sigma-Aldrich, St. Louis, MO, cat. D2650) at 800-fold the tested concentration and stored at -70 degrees C prior to their use. All drugs and investigational agents were tested over a range starting from a high concentration at or near the clinical Cmax and decreasing in half-log increments. If the clinical Cmax for an agent had not been determined, the highest concentration tested was 10 microM.
2.3 Cell Culture. All cells were maintained in an incubator at 37 degrees C and 5% CO2 with 95% humidity. The PDC lines were cultured according to standard operating procedures established by the NCI PDMR. All PDCs were thawed and cultured in Matrigel-coated flasks prepared with a working solution of 1X Ham's F-12 nutrient mix, without supplementation (Invitrogen, cat. 11765054), 100 U/mL penicillin-streptomycin (Invitrogen, cat. 15140122), and 2.5% Matrigel (Corning Inc., cat. 354248) for the first three passages. The 857933-349-R-J2-PDC line was cultured in 6C/Colon 1B media, which includes advanced DMEM/F-12 (Thermo Fisher Scientific, cat. 12634028), 10 mM HEPES (Thermo Fisher Scientific, cat. 15630080), 1X GlutaMAX supplement (Thermo Fisher Scientific, cat. 35050061), 0.1 mg/mL primocin (InvivoGen, cat. ant-pm-2), 10% defined fetal bovine serum, heat inactivated (HyClone Laboratories Inc., cat. SH30070.03HI), 50% L-WRN conditioned media (ATCC, cat. CRL-3276), 1.25 mM N-Acetyl-L-cysteine (Sigma-Aldrich, cat. A9165), 10 mM nicotinamide (Sigma-Aldrich, cat. N0636), 1X B-27 supplement (Thermo Fisher Scientific, cat. 17504044), 1X N-2 supplement (Thermo Fisher Scientific, cat. 17502048), 10 microM Y-27632 dihydrochloride (Tocris Bioscience, cat. 1254), and 50 ng/mL human EGF recombinant protein (Thermo Fisher Scientific, cat. PHG0311). The 485176-168-R4-J1-PDC line was cultured in Panc media, which includes all 6C/Colon 1B media components plus 100 ng/mL human FGF-10 (Thermo Fisher Scientific, cat. 100-26), 500 nM SB-431542 (Selleckchem, cat. S1067), and gastrin (Tocris, cat. 3006).
[…]

The mark [1] stands for this setting: curve of first compound, second compound 0.0316 µM.
Where [2] appears, read: curve of first compound, second compound 0.1 µM.
[3] abbreviates: curve of first compound, second compound 0.316 µM.
Setting [4] is: curve of first compound, second compound 1 µM.
[5] abbreviates: curve of first compound, second compound 3.16 µM.
Where [6] appears, read: curve of first compound, second compound 10 µM.
Setting [7] is: second compound 0.0316 µM, first compound 0.0316 µM.
Where [8] appears, read: second compound 0.0316 µM, first compound 0.1 µM.
Where [9] appears, read: second compound 0.0316 µM, first compound 0.316 µM.
[10] abbreviates: second compound 0.0316 µM, first compound 1 µM.
[11] abbreviates: second compound 0.0316 µM, first compound 3.16 µM.
The mark [12] stands for this setting: second compound 0.0316 µM, first compound 10 µM.
[13] abbreviates: second compound 0.1 µM, first compound 0.0316 µM.
Setting [14] is: second compound 0.1 µM, first compound 0.1 µM.
Setting [15] is: second compound 0.1 µM, first compound 0.316 µM.
Where [16] appears, read: second compound 0.1 µM, first compound 1 µM.
The mark [17] stands for this setting: second compound 0.1 µM, first compound 3.16 µM.
Where [18] appears, read: second compound 0.1 µM, first compound 10 µM.
Setting [19] is: second compound 0.316 µM, first compound 0.0316 µM.
The mark [20] stands for this setting: second compound 0.316 µM, first compound 0.1 µM.
[21] abbreviates: second compound 0.316 µM, first compound 0.316 µM.
[22] abbreviates: second compound 0.316 µM, first compound 1 µM.
Setting [23] is: second compound 0.316 µM, first compound 3.16 µM.
Where [24] appears, read: second compound 0.316 µM, first compound 10 µM.
The mark [25] stands for this setting: second compound 1 µM, first compound 0.0316 µM.
Setting [26] is: second compound 1 µM, first compound 0.1 µM.
Where [27] appears, read: second compound 1 µM, first compound 0.316 µM.
[28] abbreviates: second compound 1 µM, first compound 1 µM.
The mark [29] stands for this setting: second compound 1 µM, first compound 3.16 µM.
Where [30] appears, read: second compound 1 µM, first compound 10 µM.
The mark [31] stands for this setting: second compound 3.16 µM, first compound 0.0316 µM.
The mark [32] stands for this setting: second compound 3.16 µM, first compound 0.1 µM.
[33] abbreviates: second compound 3.16 µM, first compound 0.316 µM.
The mark [34] stands for this setting: second compound 3.16 µM, first compound 1 µM.
Setting [35] is: second compound 3.16 µM, first compound 3.16 µM.
Setting [36] is: second compound 3.16 µM, first compound 10 µM.
Setting [37] is: second compound 10 µM, first compound 0.0316 µM.
Where [38] appears, read: second compound 10 µM, first compound 0.1 µM.
[39] abbreviates: second compound 10 µM, first compound 0.316 µM.
Setting [40] is: second compound 10 µM, first compound 1 µM.
Setting [41] is: second compound 10 µM, first compound 3.16 µM.
Where [42] appears, read: second compound 10 µM, first compound 10 µM.
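Further: spheroids exposed to the agents for seven days before readout.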
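Wherever viability, T/C is given: percent viability relative to DMSO vehicle control wells = 100%.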

`O=C(c1cc(Cc2n[nH]c(=O)c3ccccc23)ccc1F)N1CCN(C(=O)C2CC2)CC1` + Cc1[nH]c2ccc(F)cc2c1-c1nc2c3cccnc3c3ncccc3c2[nH]1: the IC50 runs as follows: under setting [1], > 10 µM; under setting [2], > 10 µM; under setting [3], > 10 µM; under setting [4], > 10 µM; under setting [5], > 10 µM; under setting [6], > 10 µM. The viability, T/C runs as follows: under setting [7], 109%; under setting [8], 102%; under setting [9], 102%; under setting [10], 102%; under setting [11], 99%; under setting [12], 91.1%. In addition, the viability, T/C reads like this: under setting [13], 95.1%; under setting [14], 86.3%; under setting [15], 97.1%; under setting [16], 110%; under setting [17], 113%; under setting [18], 89.9%. Moreover, the viability, T/C is 89.9% under setting [19]; 109% under setting [20]; 90.2% under setting [21]; 95.1% under setting [22]; 103% under setting [23]; 104% under setting [24]. Besides, the viability, T/C reads like this: under setting [25], 88.8%; under setting [26], 125%; under setting [27], 127%; under setting [28], 115%; under setting [29], 90.4%; under setting [30], 88.5%. Further, the viability, T/C reads like this: under setting [31], 91.3%; under setting [32], 95.7%; under setting [33], 93.2%; under setting [34], 87.5%; under setting [35], 104%; under setting [36], 85%. Also, the viability, T/C reads like this: under setting [37], 91.6%; under setting [38], 97.2%; under setting [39], 106%; under setting [40], 104%; under setting [41], 92.5%; under setting [42], 93%.
Turning to `COc1ccc([C@@H](O)c2cc(-c3ncnc4cc(N5CCOCC5)ccc34)c(F)cc2Cl)nn1`, the viability, T/C was 119% and 95% and 106% (compound 0.0316 µM); 103% and 97.4% and 85.3% (compound 0.1 µM); 121% and 93.8% and 102% (compound 0.316 µM); 89.3% and 96.7% and 82.5% (compound 1 µM); 90.7% and 87.1% and 84.1% (compound 3.16 µM); 43.1% and 49.8% and 47% (compound 10 µM). Further, the IC50 (curve of compound) was 8.53 µM and 9.96 µM and 9.31 µM.
As to `CC(=O)O[C@H]1C(=O)[C@@]2(C)[C@H]([C@H](OC(=O)c3ccccc3)[C@]3(O)C[C@H](OC(=O)[C@H](O)[C@@H](NC(=O)c4ccccc4)c4ccccc4)C(C)=C1C3(C)C)[C@]1(OC(C)=O)CO[C@@H]1C[C@@H]2O`, the viability, T/C was 102% and 92% and 92.4% (compound 0.0316 µM); 86.3% and 73.8% and 59% (compound 0.1 µM); 60.6% and 55.7% and 63.9% (compound 0.316 µM); 32% and 37.8% and 26.7% (compound 1 µM); 18.9% and 18.2% and 24.1% (compound 3.16 µM); 12% and 17.6% and 19.5% (compound 10 µM). Moreover, the 50% inhibitory concentration (IC50) (curve of compound) is 0.483 µM and 0.423 µM and 0.306 µM.
As for `O=C(c1cc(Cc2n[nH]c(=O)c3ccccc23)ccc1F)N1CCN(C(=O)C2CC2)CC1`, the viability, T/C runs as follows: (compound 0.0316 µM) 94.2% and 117% and 81.5%; (compound 0.1 µM) 111% and 86.5% and 85.5%; (compound 0.316 µM) 101% and 84.9% and 95.2%; (compound 1 µM) 115% and 101% and 91.1%; (compound 3.16 µM) 132% and 80.7% and 87.9%; (compound 10 µM) 97.2% and 71.2% and 88.4%. Moreover, the IC50 (curve of compound) is > 10 µM.
For `Cc1cccc(N(C)C(=O)C2C(O)CCN2c2nc(C)cc(C(F)(F)F)c2C#N)c1` (stereo not given) + Cc1[nH]c2ccc(F)cc2c1-c1nc2c3cccnc3c3ncccc3c2[nH]1, the IC50 is > 10 µM under setting [1]; > 10 µM under setting [2]; > 10 µM under setting [3]; > 10 µM under setting [4]; > 10 µM under setting [5]; > 10 µM under setting [6]. The viability, T/C was 104% under setting [7]; 104% under setting [8]; 112% under setting [9]; 90% under setting [10]; 82.1% under setting [11]; 90.6% under setting [12]. Moreover, the viability, T/C under setting [13] is 86.7%; the viability, T/C under setting [14] is 95.2%; the viability, T/C under setting [15] was 92.1%; the viability, T/C under setting [16] was 77.5%; the viability, T/C under setting [17] is 90.4%; the viability, T/C under setting [18] was 112%. Moreover, the viability, T/C reads like this: under setting [19], 114%; under setting [20], 114%; under setting [21], 100%; under setting [22], 88.5%; under setting [23], 137%; under setting [24], 82.8%. For the same compound, the viability, T/C by setting is: under setting [25], 109%; under setting [26], 85.7%; under setting [27], 83.9%; under setting [28], 109%; under setting [29], 103%; under setting [30], 102%. The viability, T/C by setting is: under setting [31], 91.3%; under setting [32], 122%; under setting [33], 91.4%; under setting [34], 98.6%; under setting [35], 116%; under setting [36], 94.5%. For the same compound, the viability, T/C is 93.8% under setting [37]; 116% under setting [38]; 103% under setting [39]; 89.5% under setting [40]; 84.9% under setting [41]; 84.1% under setting [42].
